Measured values reported in US20100216779A1 (GLAXOSMITHKLINE LLC, priority 2007, published 2010).

Columns and labels:
human IGF1R (hIGF1R) = target: T1, human IGF1R (hIGF1R) (Homo sapiens, UniProt P08069); assay: IGF1R TR-FRET assay using peptide as the phosphoacceptor; assay type: biochemical; conditions: 10 μM ATP, 0.5 nM activated enzyme; read-out: IGF-1R pIC50 (converted)
T1 construct: containing amino acid residues 957-1367 of human IGF1R; made in house; host or cells: Sf9 cells, baculovirus
Method: A. IR and IGF1 R Time Resolved Fluorescence Resonance Energy Transfer (TR-FRET) Assay Using Peptide as the Phosphoacceptor
Substrate phosphorylation assays are carried out as follows:
The Source of Substrate Peptide
The biotinylated substrate peptide, (sequence-Biotin-aminohexyl-AEEEEY*[…]-NH2) SEQ. ID. 1 is purchased from QCB, Inc. (Hopkinton, Mass.). Purity is determined by HPLC. The calculated molecular mass of the peptide is 2216 dalton. Tyrosine phosphorylation by human IGF1R (hIGF1R) or human IR (hIR) occurs as indicated (Y*) in the peptide sequence described. Solid peptide sample is dissolved to approximately 1 mM in DMSO, aliquoted, and stored at −20° C. until use. True peptide concentration is determined by amino acid analysis.
The Source of Enzyme: • hIGF1R: GST-rTEV-IGF-1R (957-1367) containing amino acid residues 957-1367 of human IGF1R (as annotated by National Center for Biotechnology Information (NCBI) accession number NP_000866) is purified from a baculovirus expression system in Sf9 cells using Glutathione Sepharose 4FF column chromatography followed by Sephadex-200 size exclusion column chromatography. Enzyme purity of approximately 95% is achieved. Samples, in 25 mM Tris-HCl, 250 mM NaCl, 5% glycerol, 1 mM DTT, pH 7.5, are stored at −80° C. until use. • hIR: GST-rTEV-IR(979-1382) containing amino acid residues 979-1382 of human IR (as annotated by NCBI accession number NP_000199) is expressed and purified by the same process as hIGF1R. Enzyme purity of approximately 92% is achieved. Samples, in 25 mM Tris-HCl, 250 mM NaCl, 5% glycerol, 1 mM DTT, pH 7.5, are stored at −80° C. until use.
Activation of hIGF1R and hIR by Autophosphorylation: • hIGF1R: Activation of GST-rTEV-IGF-1R(957-1367) is achieved by a 4 minute incubation of hIGF1R (2.7 μM final) with 2 mM ATP in 50 mM HEPES, 20 mM MgCl2, 0.1 mg/mL BSA, at room temperature. Autophosphorylation is stopped by addition of EDTA (to 100 mM final). Aliquoted samples are flash frozen in liquid nitrogen and stored at −80° C. until use. • hIR: Activation of […] is achieved by a 5 minute incubation of hIR (2.7 μM final) with 2 mM ATP in 100 mM HEPES, 10 mM MgCl2, 0.1 mg/mL BSA, at room temperature. Autophosphorylation is stopped by addition of EDTA (to 100 mM final). Aliquoted samples are flash frozen in liquid nitrogen and stored at −80° C. until use. • Kinase Assay of Purified hIGF1R or hIR:
Assays are performed in 384-well (Greiner, Catalog No. 784076) microtiter plates. Reaction buffer (50 mM HEPES buffer, pH 7.5; 10 mM MgCl2; 3 mM DTT; 1 mM CHAPS; 0.1 mg/mL BSA) for peptide phosphorylation (10 μl volume) contained, in final concentrations, 500 nM biotinylated peptide substrate; 10 μM ATP; and purified, activated hIGF1R or hIR (0.5 nM). Some compounds were initially assayed against IGF1R in buffer without DTT or CHAPS. […] Compounds, titrated in DMSO, are evaluated at eleven concentrations ranging from 50 μM to 0.2 nM. […] No effect on activity relative to controls without DMSO is observed for hIGF1R or IR at these DMSO amounts. Reactions are incubated for 1 hour at room temperature and are stopped by a 5 μl addition of EDTA (to 33 mM). A further addition of 5 μl detection reagents (for final 7 nM Streptavidin-APC (PerkinElmer #CR130-150), 1 nM Europium-labeled anti-phosphotyrosine monoclonal antibody (PerkinElmer #AD0067), added in reaction buffer (without DTT), is required for signal generation. After 30 minutes, signal is read on PerkinElmer Viewlux microplate imager or Wallac Victor fluorometer.
Data were fitted to the curve described by:
y=((Vmax*x)/(K+x)) where • Vmax is the upper asymptote and • K is the IC50.
The results for each tested compound were recorded as pIC50 calculated as follows: […]

human IR (hIR) = target: T2, human IR (hIR) (Homo sapiens, UniProt P06213); assay: IR TR-FRET assay using peptide as the phosphoacceptor; assay type: biochemical; conditions: 10 μM ATP, 0.5 nM activated enzyme; read-out: IR pIC50 (converted)
T2 construct: containing amino acid residues 979-1382 of human IR; GST (N); rTEV protease site (linker between GST and kinase) (N); made in house; host or cells: Sf9 cells, baculovirus (same process as hIGF1R)
Method: Reaction buffer (50 mM HEPES buffer, pH 7.5; 10 mM MgCl2; 3 mM DTT; 1 mM CHAPS; 0.1 mg/mL BSA) for peptide phosphorylation (10 μl volume) contained, in final concentrations, 500 nM biotinylated peptide substrate; 10 μM ATP; and purified, activated hIGF1R or hIR (0.5 nM). Some compounds were initially assayed against IGF1R in buffer without DTT or CHAPS. […] Compounds, titrated in DMSO, are evaluated at eleven concentrations ranging from 50 μM to 0.2 nM. […] Reactions are incubated for 1 hour at room temperature and are stopped by a 5 μl addition of EDTA (to 33 mM). A further addition of 5 μl detection reagents (for final 7 nM Streptavidin-APC (PerkinElmer #CR130-150), 1 nM Europium-labeled anti-phosphotyrosine monoclonal antibody (PerkinElmer #AD0067), added in reaction buffer (without DTT), is required for signal generation. After 30 minutes, signal is read on PerkinElmer Viewlux microplate imager or Wallac Victor fluorometer.
The data for compound concentration responses were plotted as % Inhibition, calculated with the data reduction formula 100*(1-[(U1-C2)/(C1-C2)]), versus concentration of compound, where • U is the unknown value, • C1 is the average control value obtained for DMSO only, and
C2 is the average control value obtained for reactions stopped with EDTA at t=0.

COLO205 (colon) = assay: Inhibition of cell proliferation, CellTiter-Glo, COLO205; assay type: cell-based; conditions: Homo sapiens, COLO 205, 72 h
Procedure, shortened: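 Exponentially growing COLO205 cells in medium with 10% FBS were plated below 2000 cells/well at 37 °C, 5% CO2. Untreated wells served as controls.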

[1] = system: NCI-H929 (multiple myeloma); assay: Inhibition of cell proliferation, CellTiter-Glo, NCI-H929; assay type: cell-based; conditions: Homo sapiens, 72 h
Procedure, shortened: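 Cells were grown in medium with 10% FBS at 37° C, 5% CO2. Cell number was read as CellTiter-Glo luminescence (cellular ATP), with untreated wells as control.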

[2] = target: T3, human IGF-1R (NIH-3T3 cells over expressing human IGF-1R) (Homo sapiens, UniProt P08069); assay: IGF-1R cellular autophosphorylation (DELFIA); assay type: cell-based; conditions: IGF-1 stimulated
T3 construct: expressed in transfected cells; host or cells: NIH-3T3 (mouse fibroblasts)
Procedure, shortened: (§1)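 Read-out: DELFIA on lysates, receptor-specific capture antibody plus europium-labelled anti-phosphotyrosine, reported as % of IGF-1- or insulin-stimulated signal. Transfected NIH-3T3 cells got compound (30 uM–1.5 nM, 2 h) before a 15 min ligand pulse: IGF-1 30 ng/mL for IGF-1R, insulin 3 ug/mL for IR.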

[3] = target: T4, IR (NIH-3T3 cells over expressing human IGF-1R or IR) (Homo sapiens, UniProt P06213); assay: IR cellular autophosphorylation (DELFIA); assay type: cell-based; conditions: NIH-3T3 cells over expressing IR, insulin stimulated
T4 construct: expressed in transfected cells; host or cells: NIH-3T3 (mouse fibroblasts)
Procedure, shortened: as §1

T3 sequence (P08069 31-1367): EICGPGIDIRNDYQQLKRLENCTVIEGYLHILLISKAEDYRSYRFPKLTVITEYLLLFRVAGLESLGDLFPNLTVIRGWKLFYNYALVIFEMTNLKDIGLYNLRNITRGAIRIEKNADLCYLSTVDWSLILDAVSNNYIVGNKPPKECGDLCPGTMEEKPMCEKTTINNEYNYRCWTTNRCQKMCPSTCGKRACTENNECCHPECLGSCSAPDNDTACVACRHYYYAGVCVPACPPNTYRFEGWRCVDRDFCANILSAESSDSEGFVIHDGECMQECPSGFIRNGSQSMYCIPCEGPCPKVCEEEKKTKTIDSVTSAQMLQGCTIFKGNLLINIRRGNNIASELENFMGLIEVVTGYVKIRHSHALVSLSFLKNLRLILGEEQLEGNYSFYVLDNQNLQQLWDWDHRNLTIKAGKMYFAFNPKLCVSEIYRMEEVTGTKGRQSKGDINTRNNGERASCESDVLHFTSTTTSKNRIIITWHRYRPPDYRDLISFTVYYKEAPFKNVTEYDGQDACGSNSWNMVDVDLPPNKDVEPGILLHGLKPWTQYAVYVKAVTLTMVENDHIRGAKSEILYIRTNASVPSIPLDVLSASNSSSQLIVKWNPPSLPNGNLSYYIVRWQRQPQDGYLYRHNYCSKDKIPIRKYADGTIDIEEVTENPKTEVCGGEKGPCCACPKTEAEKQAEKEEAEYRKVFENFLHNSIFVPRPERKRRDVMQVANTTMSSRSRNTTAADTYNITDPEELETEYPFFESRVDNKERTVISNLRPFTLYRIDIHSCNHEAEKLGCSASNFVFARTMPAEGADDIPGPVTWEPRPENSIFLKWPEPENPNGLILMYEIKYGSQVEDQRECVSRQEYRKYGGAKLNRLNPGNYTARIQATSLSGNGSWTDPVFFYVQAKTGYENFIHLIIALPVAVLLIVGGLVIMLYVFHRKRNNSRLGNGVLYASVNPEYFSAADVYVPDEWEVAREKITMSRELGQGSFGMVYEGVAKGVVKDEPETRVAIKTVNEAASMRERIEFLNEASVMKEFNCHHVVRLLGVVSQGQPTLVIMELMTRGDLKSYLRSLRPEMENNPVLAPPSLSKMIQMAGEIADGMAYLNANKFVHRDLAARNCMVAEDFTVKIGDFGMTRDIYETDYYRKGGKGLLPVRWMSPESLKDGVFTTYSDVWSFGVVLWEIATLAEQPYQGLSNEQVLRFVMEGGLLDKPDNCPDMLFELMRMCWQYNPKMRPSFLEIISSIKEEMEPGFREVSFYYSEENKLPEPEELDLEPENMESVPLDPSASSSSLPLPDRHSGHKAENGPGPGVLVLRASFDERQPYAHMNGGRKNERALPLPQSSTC
T1 sequence (P08069 957-1367): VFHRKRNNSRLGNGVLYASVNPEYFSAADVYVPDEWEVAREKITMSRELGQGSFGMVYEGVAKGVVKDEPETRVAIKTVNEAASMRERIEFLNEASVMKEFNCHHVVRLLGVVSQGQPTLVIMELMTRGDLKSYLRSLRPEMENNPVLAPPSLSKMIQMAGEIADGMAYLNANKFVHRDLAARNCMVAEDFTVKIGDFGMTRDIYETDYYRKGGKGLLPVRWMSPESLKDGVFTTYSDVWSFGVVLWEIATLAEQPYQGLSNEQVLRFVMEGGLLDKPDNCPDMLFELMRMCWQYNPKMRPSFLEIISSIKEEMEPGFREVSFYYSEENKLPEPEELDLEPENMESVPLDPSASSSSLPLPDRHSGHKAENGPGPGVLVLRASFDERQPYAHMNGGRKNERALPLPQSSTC
T4 sequence (P06213 28-1382): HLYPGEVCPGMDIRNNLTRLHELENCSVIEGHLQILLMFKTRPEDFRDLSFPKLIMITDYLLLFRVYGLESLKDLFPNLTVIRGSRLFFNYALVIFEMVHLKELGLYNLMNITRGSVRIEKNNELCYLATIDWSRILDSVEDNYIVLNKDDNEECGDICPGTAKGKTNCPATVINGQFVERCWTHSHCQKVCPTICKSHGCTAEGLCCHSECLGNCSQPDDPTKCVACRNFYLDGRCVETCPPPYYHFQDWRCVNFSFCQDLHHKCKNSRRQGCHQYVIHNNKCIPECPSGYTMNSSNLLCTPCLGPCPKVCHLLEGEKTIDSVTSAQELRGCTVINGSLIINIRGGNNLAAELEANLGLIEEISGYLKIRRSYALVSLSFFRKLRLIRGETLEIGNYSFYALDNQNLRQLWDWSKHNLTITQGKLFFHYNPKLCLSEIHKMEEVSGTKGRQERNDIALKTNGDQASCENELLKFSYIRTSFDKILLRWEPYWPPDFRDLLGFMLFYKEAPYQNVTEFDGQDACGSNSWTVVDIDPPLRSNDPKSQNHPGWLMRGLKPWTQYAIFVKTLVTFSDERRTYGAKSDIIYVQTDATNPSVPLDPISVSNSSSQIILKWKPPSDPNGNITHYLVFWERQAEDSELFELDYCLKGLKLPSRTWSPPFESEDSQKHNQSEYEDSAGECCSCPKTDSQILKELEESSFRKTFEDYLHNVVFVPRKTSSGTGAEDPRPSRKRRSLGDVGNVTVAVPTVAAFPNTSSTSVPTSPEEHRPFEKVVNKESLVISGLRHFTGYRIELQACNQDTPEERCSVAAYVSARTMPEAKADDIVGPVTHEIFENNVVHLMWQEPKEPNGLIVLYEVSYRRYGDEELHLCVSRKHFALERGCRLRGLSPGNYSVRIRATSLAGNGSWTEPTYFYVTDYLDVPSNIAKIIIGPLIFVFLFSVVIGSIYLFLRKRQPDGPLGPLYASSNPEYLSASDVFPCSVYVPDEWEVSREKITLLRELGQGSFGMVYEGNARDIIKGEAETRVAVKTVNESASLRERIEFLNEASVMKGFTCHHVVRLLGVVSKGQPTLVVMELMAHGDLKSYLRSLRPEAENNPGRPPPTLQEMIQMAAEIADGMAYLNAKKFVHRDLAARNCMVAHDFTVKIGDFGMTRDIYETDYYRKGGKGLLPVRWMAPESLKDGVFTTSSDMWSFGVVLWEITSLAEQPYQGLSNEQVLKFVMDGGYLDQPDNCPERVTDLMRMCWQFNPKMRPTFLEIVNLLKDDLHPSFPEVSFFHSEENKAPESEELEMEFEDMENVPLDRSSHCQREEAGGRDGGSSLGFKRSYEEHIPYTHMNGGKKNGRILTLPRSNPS
T2 sequence (P06213 979-1382): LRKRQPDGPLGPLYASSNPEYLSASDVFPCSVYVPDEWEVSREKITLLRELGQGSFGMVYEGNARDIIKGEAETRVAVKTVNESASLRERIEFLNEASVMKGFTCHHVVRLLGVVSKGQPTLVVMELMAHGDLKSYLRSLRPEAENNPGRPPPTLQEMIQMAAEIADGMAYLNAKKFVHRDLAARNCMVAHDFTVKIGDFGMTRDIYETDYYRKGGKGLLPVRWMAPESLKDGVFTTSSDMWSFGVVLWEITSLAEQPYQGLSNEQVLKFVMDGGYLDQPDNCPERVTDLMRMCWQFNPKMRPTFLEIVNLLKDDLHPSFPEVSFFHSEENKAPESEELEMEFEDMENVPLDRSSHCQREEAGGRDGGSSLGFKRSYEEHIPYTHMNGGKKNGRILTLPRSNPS

COc1cc(N2CCN(S(C)(=O)=O)CC2)c(C)cc1Nc1nccc(-c2c(-c3ccc(OC)c(C(=O)Nc4c(F)cccc4F)c3)nc3ccccn23)n1 [Example 225, N-(2,6-difluorophenyl)-5-{3-[2-({5-methyl-2-(methyloxy)-4-[4-(methylsulfonyl)-1-piperazinyl]phenyl}amino)-4-pyrimidinyl]imidazo[1,2-a]pyridin-2-yl}-2-(methyloxy)benzamide]
IC50 (human IGF1R (hIGF1R)): < 100 nM
IC50 (human IR (hIR)): < 100 nM
IC50 (COLO205 (colon)): < 250 nM
IC50 [1]: < 250 nM
IC50 [2]: < 100 nM
IC50 [3]: < 100 nM
